In patent US20090196918A1, “Liposomal formulations of hydrophobic lactone drugs in the presence of metal ions” (University of Kentucky Research Foundation, priority 2008, published 2009):

What was measured:
[1] = Release of DB-67 from liposomes (dialysis at 37° C., HPLC analysis); assay type: physicochemical
[2] = animal data, intravenous administration; cited from earlier work
[3] = Drug loading of DB-67 into liposomes by passive encapsulation

drug retention in liposomes as a function of pH ([1]; increasing pH, intravesicular cyclodextrin constant at 50 mM (FIG. 4)): increases drug retention
release profile of DB-67 from liposomes ([1]; liposomes prepared at pH 4, citrate buffer, 0.1 M hydroxypropyl-β-cyclodextrin (FIG. 2)): uniform release profile
release profile of DB-67 from liposomes ([1]; liposomes prepared at pH 7.4, citrate buffer, 0.1 M hydroxypropyl-β-cyclodextrin (FIG. 3)): uniform release
DB-67 concentration of liposome suspension that could be prepared (loading) ([3]; absence of cyclodextrin, all drug is entrapped): 0.05 mg/mL
DB-67 concentration of liposome suspension that could be prepared (loading) ([3]; intraliposomal pH increased to 9.5, with hydroxypropyl-β-cyclodextrin): 1.4 mg/mL
Structure (SMILES): CC[C@@]1(O)C(=O)OCc2c1cc1n(c2=O)Cc2c-1nc1ccc(O)cc1c2[Si](C)(C)C(C)(C)C [DB-67, 7-t-butyldimethylsilyl-10-hydroxycamptothecin]
lactone to total AUC [2]: > 90%
